Conditions: in n-octanol

Compound | solubility (mole fraction) (293.15 K) | solubility (mole fraction) (298.15 K) | solubility (mole fraction) (303.15 K) | solubility (mole fraction) (308.15 K) | solubility (mole fraction) (313.15 K)
COc1ccccc1-n1c(=S)sc2c(=O)n(CC(=O)NCC(O)(Cn3cncn3)c3ccc(F)cc3F)cnc21 (stereo not given) | 0.00182 | 0.00212 | 0.00253 | 0.00297 | 0.00348
O=C(Cn1cnc2c(sc(=S)n2-c2ccc(Cl)cc2)c1=O)NCC(O)(Cn1cncn1)c1ccc(F)cc1F (stereo not given) | 0.000548 | 0.000617 | 0.000699 | 0.000773 | 0.000861
O=C(Cn1cnc2c(sc(=S)n2-c2ccc(F)cc2)c1=O)NCC(O)(Cn1cncn1)c1ccc(F)cc1F (stereo not given) | 0.000335 | 0.000382 | 0.000439 | 0.000495 | 0.000563
Cc1ccc(-n2c(=S)sc3c(=O)n(CC(=O)NCC(O)(Cn4cncn4)c4ccc(F)cc4F)cnc32)cc1 (stereo not given) | 0.000299 | 0.000368 | 0.000444 | 0.000531 | 0.000638
